PMC4947684, “In Vivo and In Vitro Genotoxic and Epigenetic Effects of Two Types of Cola Beverages and Caffeine: A Multiassay Approach” (BioMed Research International, 2016)
Read-outs that look alike come from different tables or passages of the source.

Key:
LINE-1 = test: Methylation status of HL-60 cells (qMSP); assay type: cell-based, human; conditions: HL-60, 5 h, 0.51 mM
Description: Then, DNA was extracted similarly to previously described DNA fragmentation assay. After that, the DNA was converted with bisulphite (EZ DNA Methylation-Gold™ Kit). Bisulphite-modified DNA was used for fluorescence-based real-time quantitative Methylation-Specific PCR (qMSP) using 5 μM of each forward and reverse primer (Isogen Life Science BV), 2 μL of iTaq™ Universal SYBR® Green Supermix (Bio-Rad, it contains antibody-mediated hot-start iTaq DNA polymerase, dNTPs, MgCl2, SYBR Green I Dye, enhancers, stabilizers, and a blend of passive reference dyes including ROX and fluorescein) and 25 ng of bisulphite converted genomic DNA. PCR conditions included initial denaturalisation at 95°C for 3 minutes and amplification which consisted of 45 cycles at 95°C for 10 seconds, 60°C for 15 seconds, and 72°C for 15 seconds, taking picture at the end of each elongation cycle. After that, melting curve was determined increasing 0.5°C each […] from 60°C to 95°C and taking pictures. QMSP was carried out in 48-well plates in MiniOpticon Real-Time PCR System (MJ Mini Personal Thermal Cycler, Bio-Rad) and were analysed by Bio-Rad CFX Manager 3.1 software. […] Alu-C4 and the target repetitive elements Alu M1, LINE-1, and Sat-α were obtained from Isogen Life Science and their sequences are shown in Table 1. Each sample was analysed in triplicate. The results of each CT were obtained from each qMSP. […]

HL-60 cells [1] = test: DNA fragmentation status (internucleosomal ladder); assay type: cell-based, human; conditions: HL-60, 5 h, any CAF treatment
Description: The ability of our compounds to induce DNA fragmentation was determined as described by Anter et al.. […] After treatment, genomic DNA was extracted using a commercial kit (Blood Genomic DNA Extraction Mini Spin Kit, […] Biotech, Cordoba, Spain). Subsequently, DNA was incubated overnight with RNase at 37°C and quantified in a spectrophotometer (Nanodrop® ND-1000). Finally, 1200 ng DNA was electrophoresed in a 2% agarose gel for 120 min at 50 V, stained with ethidium bromide, and visualised under UV light. The apoptosis process is recognised by the appearance of internucleosomal DNA fragments that are multiple of 200 base pairs.

HL-60 cells [2] = test: Cytotoxicity assay (trypan blue exclusion); assay type: cell-based, human; conditions: Homo sapiens; HL-60, highest tested concentration 20.4 mM; read-out: Inhibition of cell growth
Description: (§1) Promyelocytic human leukaemia (HL-60) cells were grown in RPMI-1640 medium (Sigma, R5886) supplemented with heat-inactivated foetal bovine serum (Linus, S01805), L-glutamine 200 mM (Sigma, G7513), and 1x antibiotic-antimycotic solution (Sigma, A5955). Cells were incubated at 37°C in a humidified atmosphere of 5% CO2. Cultures were plated at 2.5 × 10^4 cells/mL density in 10 mL culture bottles and passed every 2 days. The effect of the assayed compounds on cell viability was determined by the trypan blue exclusion test according to our standard procedures. […] After culture, cells were stained with a 1 : 1 volume ratio of trypan blue dye (Sigma, T8154) and counted in a Neubauer chamber at 100x magnification. The survival percentage of each treatment compared with the control was recorded in three independent replicates.

[3] = Cytotoxicity assay (trypan blue exclusion); assay type: cell-based, human; conditions: human, HL-60 cells; HL-60, 72 h; read-out: IC50 (cytotoxicity), not reached at highest tested concentration
Description: as §1

D. melanogaster larvae [4] = test: Antitoxicity assay (combined treatment with […] H2O2)
Description: (§2) Negative (H2O) and positive (0.15 M H2O2) toxicant concurrent controls were also assayed. Test groups consisted of larvae fed with Drosophila Instant Medium (Formula 4–24, Carolina Biological Supply, Burlington, NC) supplemented with the beverage concentrations tested. Emerging adults of all groups were counted and toxicity was determined as the percentage of hatched individuals in each treatment compared with the negative control. Antitoxicity was assessed using the same procedure and experimental concentrations as in toxicity assays, but in combined treatments with 0.15 M H2O2 and comparing the percentage of emerging adults with the positive toxicant control [34]. […] Negative control values were considered as those expected in Chi-square formula used in toxicity assay and positive control values in antitoxicity assays [35]. The same concentrations of toxicity and antitoxicity assays within the same substance were also compared.

D. melanogaster larvae [5] = tested on: D. melanogaster larvae
Description: as §2

Drosophila melanogaster [6] = test: Antigenotoxicity, Drosophila wing spot test (SMART), combined with H2O2; conditions: combined treatment with […] H2O2, mwh/flr3, 0.51 mM
Description: (§3) Genotoxicity assays were carried out following the wing spot test standard procedure [20]. Briefly, transheterozygous larvae for mwh and flr ^3 genes were obtained by crossing four-day-old virgin flr ^3 females with mwh males in a 2 : 1 ratio. Four days after fertilization, females were allowed to lay eggs in fresh yeast medium (25 g yeast and 4 mL sterile distilled water) for 8 h in order to obtain synchronised larvae. After 72 h, larvae were collected, washed with distilled water, and clustered in groups of 100 individuals. […] Adult flies were collected and stored in 70% ethanol until the wings were removed and mounted on slides using Faure's solution. Mutant spots were assessed in both dorsal and ventral surfaces of the wings in a bright light microscope at 400x magnification. The frequencies of each type of mutant clone per wing (single, large, or twin spot) were compared to the concurrent negative control and analysed applying the binomial Kastenbaum and Bowman Test [36]. Antigenotoxicity tests were performed following the method described by Anter et al. [37]. […] Single and twin spots per wing were also recorded and compared with the concurrent positive control as described before. The recombination percentage was calculated following Valadares et al. [38] procedure and the inhibition percentages (IP) for the combined treatments were calculated from the control-corrected frequencies of clone formation per 10^5 cells, according to Abraham [39]: IP = [(genotoxin alone − combined treatment)/genotoxin alone] × 100.

HL-60 = tested on: HL-60; parameters: method as in PMID 1311329; conditions: at 5 mM; cited from earlier work
[7] = tested on: human breast cancer cells; parameters: method as in PMID 25691730; conditions: cited from earlier work
Drosophila melanogaster [8] = test: Chronic treatments: lifespan and healthspan assays; assay type: in vivo; conditions: for Healthspan difference (%) / Mean lifespan difference (%): versus concurrent water control
Description: We also tested the same compounds and concentrations as in the toxicity/antitoxicity experiments. Lifespan assays were carried out at 25°C according to the procedure described by Fernandez-Bedmar et al.. Briefly, synchronised 72 ± 12-hour-old transheterozygous larvae were washed in distilled water, collected, and transferred in groups of 100 individuals into test vials containing 0.85 g Drosophila Instant Medium and 4 mL of the different concentrations of the compounds to be assayed. Emerged adults from pupae were collected under CO2 anaesthesia and placed in groups of 25 individuals of the same sex into sterile vials containing 0.21 g Drosophila Instant Medium and 1 mL of different concentrations of the compounds to be tested. Flies were chronically treated during all their life. The number of survivors was determined twice a week.

Drosophila melanogaster [9] = test: Genotoxicity, Drosophila wing spot test (SMART); conditions: […] H2O2 alone
Description: as §3

[10] = mwh/TM3 balancers-heterozygous wings

## Cn1c(=O)c2c(ncn2C)n(C)c1=O [CAF, 1,3,7-trimethylpurine-2,6-dione]
LINE-1
  Methylation status: decrease of methylation status
HL-60 cells [1]
  Ladder pattern of fragmented internucleosomal DNA: not observed
HL-60 cells [2]
  inhibition at 20400 µM: ~40%
[3]
  IC50 at 72 h: > 20.4 mM
D. melanogaster larvae [4]; 0.004 mM + […] hydrogen peroxide
  Survival (%) combined treatment: 54^Δ %
D. melanogaster larvae [4]; 0.032 mM + […] hydrogen peroxide
  Survival (%) combined treatment: 51^Δ %
D. melanogaster larvae [4]; 0.127 mM + […] hydrogen peroxide
  Survival (%) combined treatment: 54.66^Δ %
D. melanogaster larvae [4]; 0.51 mM + […] hydrogen peroxide
  Survival (%) combined treatment: 51.33^Δ %
D. melanogaster larvae [5]; 0.004 mM
  Survival (%) simple treatment: 100%
D. melanogaster larvae [5]; 0.032 mM
  Survival (%) simple treatment: 100%
D. melanogaster larvae [5]; 0.127 mM
  Survival (%) simple treatment: 100%
D. melanogaster larvae [5]; 0.51 mM
  Survival (%) simple treatment: 100%
Drosophila melanogaster [6]
  Clones per wings: large simple spots (>2 cells) m = 5: 0.125 (10) clones/wing
  Clones per wings: small single spots (1-2 cells) m = 2: 0.325 (26) clones/wing
  Clones per wings: total spots m = 2: 0.45 clones/wing
  Clones per wings: twin spots m = 5: 0 clones/wing
  Frequency of clone formation per 10^5 cells, control corrected: 0.766 per 10^5 cells
  Frequency of clone formation per 10^5 cells, observed: 1.844 per 10^5 cells
HL-60
  Growth inhibition (in words): inhibited HL-60 growth
[7]
  IC50: ~5 mM
Drosophila melanogaster [8]; 0.004 mM, mean ± SE
  Healthspan (80th percentile) (days): 47 ± 2.65^∗∗ days
  Mean lifespan: 62.88 ± 1.7 days
Drosophila melanogaster [8]; 0.004 mM
  Healthspan difference (%): 55.73%
  Mean lifespan difference (%): 6.87%
Drosophila melanogaster [8]; 0.032 mM, mean ± SE
  Mean lifespan (days): 68.86 ± 2.38^∗∗ days
Drosophila melanogaster [8]; 0.032 mM
  Healthspan difference (%): 40.32%
  Mean lifespan difference (%): 17.02%
Drosophila melanogaster [8]; 0.127 mM, mean ± SE
  Mean lifespan (days): 70.91 ± 2.99^∗∗∗ days
Drosophila melanogaster [8]; 0.127 mM
  Healthspan difference (%): 22.23%
  Mean lifespan difference (%): 20.52%
Drosophila melanogaster [8]; 0.51 mM, mean ± SE
  Mean lifespan: 61.14 ± 2.07 days
Drosophila melanogaster [8]; 0.51 mM
  Healthspan difference (%): 26.41%
  Mean lifespan difference (%): 3.91%
Drosophila melanogaster [8]; on average
  Drosophila lifespan increase, on average: more than 15%

## OO [H2O2, hydrogen peroxide]
D. melanogaster larvae [4]; […] H2O2 alone
  Survival (%) positive toxicant control: 46.66%
Drosophila melanogaster [9]; [10]
  Clones per wings: large simple spots (>2 cells) m = 5: 0.013 (1) clones/wing
  Clones per wings: small single spots (1-2 cells) m = 2: 0.188 (15) clones/wing
Drosophila melanogaster [9]; mwh/TM3 wings
  Frequency of clone formation per 10^5 cells, observed: 0.819 per 10^5 cells
Drosophila melanogaster [9]; mwh/flr3 wings
  Clones per wings: large simple spots (>2 cells) m = 5: 0.088 (7) clones/wing
  Clones per wings: small single spots (1-2 cells) m = 2: 0.313 (25) clones/wing
  Clones per wings: total spots m = 2: 0.438 clones/wing
  Clones per wings: twin spots m = 5: 0.038 (3) clones/wing
  Frequency of clone formation per 10^5 cells, control corrected: 0.717 per 10^5 cells
  Frequency of clone formation per 10^5 cells, observed: 1.795 per 10^5 cells
Drosophila melanogaster [9]; mwh/flr3 wings, versus negative control
  Statistical diagnosis of total spots: +
